Laboratory results taken from publication PMC11683478, “Bioprospecting of culturable marine biofilm bacteria for novel antimicrobial peptides” (iMeta, 2024).
Where no end group is shown, it is not given here.

Key:
sheep red blood cells = conditions: red cells of sheep, 1 h
Method: Freshly collected sheep blood was centrifuged at 3000 rpm for 10 min, and the supernatant was removed. The pellet was washed and resuspended with normal saline water to produce a 2% blood cell solution. Then, 400 μL of peptide solution was added to 100 μL of 2% blood cell solution to achieve final peptide concentrations of 8, 16, 32, 64, and 128 μg/mL. Normal saline water and Triton X‐100 normal saline solution (2%) were used as negative and positive controls, respectively. The samples were incubated in a water bath at 37°C for 1 h, followed by centrifugation at 3000 rpm for 10 min. Then, 200 μL of the supernatant was transferred to a 96‐well plate, and OD values were measured at a wavelength of 545 nm. The hemolysis rate of each sample was calculated using the following formula: Hemolysis ratio=OD545(experimental)−OD545(negative control)/OD545(positive control)−OD545(negative control)×100%.

[1] = tested on: Acinetobacter baumannii ATCC 19606; assay: Antibacterial screen at 200 μg/mL (cell density vs control); assay type: cell-based; conditions: peptide 200 μg/mL, CAMHB, 5 × 10^5 CFU/mL, 37°C, 12 h, OD600; control (no AMP) = 1; three biological replicates
Method: (§1) Eight bacterial strains were utilized in the antibacterial experiment. S. aureus ATCC 12600, B. subtilis ATCC 23857, E. coli ATCC 11775, and A. baumannii ATCC 19606 were purchased from Shanghai Beinuo Biology. M. luteus ATCC 4698 and S. bongori ATCC43975 were purchased from Shanghai Beisi Biotechnology. V. owensii ems001 and V. alginolyticus xv22 from the intestines of diseased shrimps were isolated in our laboratory. All strains were cultured in the cation‐adjusted Mueller‐Hinton broth (CAMHB) at 37°C to the logarithmic growth phase (OD600 = 0.5). Then, bacteria were gradient‐diluted using fresh CAMHB to a bacterial density of 5 × 10^5 CFU/mL. Antibacterial experiments were performed in a 96‐well plate with 200 μg/mL final peptide concentration. Four experimental groups were set up, including a blank control (200 μL CAMHB), a negative control (180 μL CAMHB plus 20 μL peptide), a positive control (180 μL bacterial culture plus 20 μL ultrapure water), and an experimental group (180 μL bacterial culture plus 20 μL peptide). Three biological replicates were conducted for each group, and OD600 values were measured after incubation at 37°C for 12 h. Every observed value was removed from the blank control group value. The value of the experimental group was then subtracted from the value of the negative control group therefore eradicating the effect of the peptide on the OD measurement. Student's t‐test allowed the estimation of a notable variation between the experimental and positive groups using a p‐value of 0.05 as the limit. […] The MIC of a peptide against a bacterium was determined as the minimum peptide concentration at which there was no visible bacterial growth.

[2] = tested on: Micrococcus luteus ATCC 4698; assay: as above; assay type: cell-based; conditions: peptide 200 μg/mL, CAMHB, 5 × 10^5 CFU/mL, 37°C, 12 h, OD600; control (no AMP) = 1; three biological replicates
Method: as §1

[3] = tested on: Escherichia coli ATCC 11775; assay: as above; assay type: cell-based; conditions: peptide 200 μg/mL, CAMHB, 5 × 10^5 CFU/mL, 37°C, 12 h, OD600; control (no AMP) = 1; three biological replicates
Method: as §1

[4] = tested on: Bacillus subtilis ATCC 23857; assay: as above; assay type: cell-based; conditions: peptide 200 μg/mL, CAMHB, 5 × 10^5 CFU/mL, 37°C, 12 h, OD600; control (no AMP) = 1; three biological replicates
Method: as §1

[5] = tested on: Salmonella bongori ATCC 43975; assay: as above; assay type: cell-based; conditions: peptide 200 μg/mL, CAMHB, 5 × 10^5 CFU/mL, 37°C, 12 h, OD600; control (no AMP) = 1; three biological replicates
Method: as §1

[6] = tested on: Vibrio alginolyticus xv22; assay: as above; assay type: cell-based; conditions: peptide 200 μg/mL, CAMHB, 5 × 10^5 CFU/mL, 37°C, 12 h, OD600; control (no AMP) = 1; three biological replicates
Method: as §1

[7] = tested on: Staphylococcus aureus ATCC 12600; assay: as above; assay type: cell-based; conditions: peptide 200 μg/mL, CAMHB, 5 × 10^5 CFU/mL, 37°C, 12 h, OD600; control (no AMP) = 1; three biological replicates
Method: as §1

Vibrio owensii ems001 = assay: as above; assay type: cell-based; conditions: peptide 200 μg/mL, CAMHB, 5 × 10^5 CFU/mL, 37°C, 12 h, OD600; control (no AMP) = 1; three biological replicates
Method: as §1

Sequence	Hemolysis ratio (%) at 8μg/mL (sheep red blood cells) [%]	Hemolysis ratio (%) at 16μg/mL (sheep red blood cells) [%]	Hemolysis ratio (%) at 32μg/mL (sheep red blood cells) [%]	Hemolysis ratio (%) at 64μg/mL (sheep red blood cells) [%]	cell density relative to control, A. baumannii ATCC 19606 [1]	cell density relative to control, M. luteus ATCC 4698 [2]	cell density relative to control, E. coli ATCC 11775 [3]	cell density relative to control, B. subtilis ATCC 23857 [4]	cell density relative to control, S. bongori ATCC 43975 [5]	cell density relative to control, V. alginolyticus xv22 [6]	cell density relative to control, S. aureus ATCC 12600 [7]	cell density relative to control, V. owensii ems001 (Vibrio owensii ems001)	Hemolysis ratio (%) at 128μg/mL (sheep red blood cells) [%]
MWIRLTKRLRKSRSNR [Cand-214]	1.812	2.604	3.258	3.738									
MGRISCMWSSSYKCRFNCYF [Cand-20, chemically synthesized candidate AMP predicted from marine biofilm bacteria]					0.937	1	1	1	1	0.635	0.809	0.818	
MCRWWPDWWHHRWWHCRGCCRFCRG [Cand-111, chemically synthesized candidate AMP predicted from marine biofilm bacteria]					1	1	0.669	1	0.794	0.477	0.202	0.357	
MRVGMCRIGGRL [Cand-79, chemically synthesized candidate AMP predicted from marine biofilm bacteria]					0.975	1	0.73	0.837	0.975	0.8	0.728	1	
MSKIKAKIGHLR [Cand-98, chemically synthesized candidate AMP predicted from marine biofilm bacteria]					0.74	1	0.765	1	1	1	0.721	1	
MAWISTRIACCCSTRLRRRIRTCSTSFCR [Cand-218, chemically synthesized candidate AMP predicted from marine biofilm bacteria]					0.029	0.052	0.021	0.004	0.938	0.049	0	0.001	
MICWCAKICCSCSAFRRWWKRNGTAC [Cand-57, chemically synthesized candidate AMP predicted from marine biofilm bacteria]					0.653	1	0.456	0	0.134	0	0	0.002	
MRPKKWLKKPKPRPKKWPTK [Cand-210]	0.520	0.079	0.689	1.792									
MRQGMCRIGGRL [Cand-55, chemically synthesized candidate AMP predicted from marine biofilm bacteria]					0.845	1	0.915	0.908	1	0	0.793	1	
MRPGMCRIGGRL [Cand-22, chemically synthesized candidate AMP predicted from marine biofilm bacteria]					1	1	1	1	0.876	0.862	0.777	1	
MRRFCCCRCSCCCWPS [Cand-25, chemically synthesized candidate AMP predicted from marine biofilm bacteria]					1	1	0.835	1	0.847	1	0.422	0.067	
MSPIRAWRRLRSC [Cand-144]	1.328	1.615	1.536	3.230									10.013
MWWSKSIHQASFTRYRSYCRGCCTFSIRSCRYKRRII [Cand-180, chemically synthesized candidate AMP predicted from marine biofilm bacteria]					0	0	0	0	0.025	0	0.107	0	
MQPILKKAAPKHVGYFYKCYL [Cand-119, chemically synthesized candidate AMP predicted from marine biofilm bacteria]					0.908	1	0.618	0.838	0.699	0.73	0	0.046	
MKRLKKCVLSSLSI [Cand-126, chemically synthesized candidate AMP predicted from marine biofilm bacteria]					0.191	0	0.448	0.301	0.299	0.039	0	1	
MFKFFCCIFYMCRIKTH [Cand-18, chemically synthesized candidate AMP predicted from marine biofilm bacteria]					0.014	0	0.004	0	0.031	0	0	0.007	
MSPCLKGVIRSAVKSLHR [Cand-53]	2.990	2.497	3.703	3.585									
MWPLSKLWPSCFRKTT [Cand-5]	2.350	1.575	0.874	7.118									
MLTWLKKLQPYLISMMR [Cand-44]	3.540	1.775	3.660	5.713									19.067
